Laboratory results from patent US10889611B2, “Sialyltransferase inhibitors and uses thereof” (Academia Sinica, priority 2015, dated 2021).

Tests used:
MDA-MB-231 cells = experiment: Transwell migration assay, breast cancer cells; assay type: cell-based, human
Description: Migration assays were done using a transwell, in which a polycarbonate filter pre-coated with Matrigel (8-μm pores, Millicell; Millipore, Billerica, Mass.) was inserted therein. […] Cells that had migrated to the underside of the inserted filter were stained with hematoxylin solution. The cells in the upper side of the inserted membrane were rubbed with a cotton swab. The migrated cells on the underside were pictured in a 200× magnification field and quantified.

MDA-MB-231 breast cancer = experiment: Nude mice model of human MDA-MB-231 breast cancer; assay type: in vivo
Experimental: BALB/c mice (4-5 weeks old) were subcutaneously injected with 1×10^6 MDA-MB-231 cells to the mammary fat pad on day 0. Tumors were allowed to grow in the mice until the size of the tumor reached 100 mm^3, and then the animals were randomly assigned to 3 groups (n=6-8 per group): tumor (vehicle) control, 10 mg/kg the present compound (e.g., FCW34 or FCW66) treatment group. The present compound was intraperitoneally (i.p.) injected to test animals every three days. The growth and metastasis of the tumors were observed by IVIS imaging system, and the metastasized tumor tissues were collected on day 60, and measured for the volume (V) using calipers and calculated by the formula V=(L×W^2)/2, where L is the length and W is the width of tumor.
The effects of the sialyltransferase inhibitor in tumor growth and metastasis were investigated in a nude mice model of human MDA-MB-231 breast cancer established in accordance with procedures set forth in the “Materials and Methods” section. The MDA-MB-231/Luc cells (5×10^6 cells) were orthotopically injected into the mammary fat pad of nude mice. Then the mice were given FCW34 and vehicle, respectively, on day 20, and the tumor volume were evaluated by bioluminescence every 3 days using IVIS image analysis.

PANC-1 cells = experiment: In vitro transwell invasion analysis, PANC-1 cells; assay type: cell-based, human; settings: PANC-1 cells grown in fructose-containing medium, FIG. 4
Experimental: Migration assays were done using a transwell, in which a polycarbonate filter pre-coated with Matrigel (8-μm pores, Millicell; Millipore, Billerica, Mass.) was inserted therein. Cells were serum-starved for 24 h and then seeded (5×10^5 cells per upper chamber) and treated with or without the present compound(s) (concentrations as indicated), and the assays were run for 6 h. Cells that had migrated to the underside of the inserted filter were stained with hematoxylin solution. The cells in the upper side of the inserted membrane were rubbed with a cotton swab. The migrated cells on the underside were pictured in a 200× magnification field and quantified.
In this example, the ability of the FCW34 in suppressing the migration and/or invasion of pancreatic cancer cells was investigated using in vitro transwell analysis and in vivo mice model bearing pancreatic cancer.

SMILES: C[C@H](CCC(=O)OCCOCCOCCN=[N+]=[N-])C1CC[C@H]2[C@@H]3CC[C@@H]4C[C@H](OC(=O)[C@H](CC(=O)O)Nc5ccc([N+](=O)[O-])c6nonc56)CC[C@]4(C)[C@H]3CC[C@]12C (stereo partly drawn) [Compound 3, (3S)-4-(((3R,5R,8R,9S,10S,13R,14S)-17-((R)-5-(2-(2-(2-azidoethoxy)ethoxy)ethoxy)-5-oxopentan-2-yl)-10,13-dimethylhexadecahydro-1H-cyclopenta[a]phenanthren-3-yl)oxy)-3-((7-nitrobenzo[c][1,2,5]oxadiazol-4-yl)amino)-4-oxobutanoic acid]
- migration of MDA-MD-231 cells (MDA-MB-231 cells; 20 μM, FIG. 1): inhibited the migration
- IC50 (MDA-MB-231 cells; Homo sapiens, MDA-MB-231, 16 h, read-out: IC50 on migration): 10.64 ± 0.09 µM
- growth of the cancer cells (tumors harvested on day 60) (MDA-MB-231 breast cancer; 10 mg/Kg, FIG. 2B): suppresses the growth
- level of bioluminescence (tumor growth, IVIS) (MDA-MB-231 breast cancer; 10 mg/Kg/mouse/3 days, FIG. 2A): remained at a relatively low level
- toxic effects (biochemistry tests of blood and body weight assessment) (MDA-MB-231 breast cancer; treated mice, data not shown): limited toxic effects
- invasion ability (PANC-1 cells): significantly inhibited
